Measurements reported in patent US20070128217A1 (priority 2003, published 2007).

Assays:
[1] = tested on: antibodies in sera from SARS patients (sera 1a, 1b, 2, 6, 37, 62, London, SARS-yellow, SARS-green); type: binding, human; parameters: Binding of serum 6 to linear peptides of protein X1 of SARS-CoV Urbani / Binding of serum 37 to linear peptides of protein X1 of SARS-CoV Urbani / Binding of serum 6 to looped/cyclic peptide (PEPSCAN-ELISA) / Binding of serum 37 to looped/cyclic peptide (PEPSCAN-ELISA) / Binding of serum 37 to looped/cyclic peptides of protein X1 of SARS-CoV Urbani / Binding of serum 6 to linear peptides of protein X2 / Binding of serum 37 to linear peptides of protein X2 / Binding of serum 37 to looped/cyclic peptides of protein X2 of SARS-CoV Urbani / Binding of serum 6 to linear peptides of protein M of SARS-CoV Urbani / Binding of serum 37 to linear peptides of protein M of SARS-CoV Urbani / Binding of serum 6 to looped/cyclic peptides of protein M of SARS-CoV Urbani / Binding of serum 37 to looped/cyclic peptides of protein M of SARS-CoV Urbani / Binding of serum 6 to linear peptides of protein X3 of SARS-CoV Urbani / Binding of serum 37 to linear peptides of protein X3 of SARS-CoV Urbani / Binding of serum 37 to looped/cyclic peptides of protein X3 of SARS-CoV Urbani / Binding of serum 6 to linear peptides of protein X4 of SARS-CoV Urbani / Binding of serum 37 to linear peptides of protein X4 of SARS-CoV Urbani / Binding of serum 37 to looped/cyclic peptides of protein X4 of SARS-CoV Urbani / Binding of serum 6 to linear peptides of protein X5 of SARS-CoV Urbani / Binding of serum 37 to linear peptides of protein X5 of SARS-CoV Urbani / Binding of serum 37 to looped/cyclic peptides of protein X5 of SARS-CoV Urbani / Binding of serum 6 to linear peptides of protein N of SARS-CoV Urbani / Binding of serum 37 to linear peptides of protein N of SARS-CoV Urbani / Binding of serum 6 to linear peptide (PEPSCAN-ELISA) / Binding of serum 1a to looped/cyclic peptides of protein N of SARS-CoV Urbani / Binding of serum 1b to looped/cyclic peptides of protein N of SARS-CoV Urbani / Binding of serum 2 to looped/cyclic peptides of protein N of SARS-CoV Urbani / Binding of serum 6 to looped/cyclic peptides of protein N of SARS-CoV Urbani / Binding of serum 37 to looped/cyclic peptides of protein N of SARS-CoV Urbani / Binding of serum 62 to looped/cyclic peptides of protein N of SARS-CoV Urbani / Binding of serum London to looped/cyclic peptides of protein N of SARS-CoV Urbani / Binding of serum SARS-green to looped/cyclic peptides of protein N of SARS-CoV Urbani: unit not given here
[2] = tested on: control sera (pooled serum of ten healthy LUMC hospital workers; commercial negative donor pooled serum from the Dutch bloodbank); type: binding, human; parameters: Binding of Control serum LUMC to linear peptides / Binding of Control serum Blood-bank to linear peptides / Binding of Control serum LUMC to looped peptides / Binding of Control Serum Blood-Bank to Looped peptides / Binding of Control serum LUMC to linear peptides of the protein M of SARS-CoV Urbani / Binding of Control serum Blood-bank to linear peptides of the protein M of SARS-CoV Urbani / Binding of Control serum LUMC to looped peptides of the protein M of SARS-CoV Urbani / Binding of Control Serum Blood-Bank to Looped peptides of the protein M of SARS-CoV Urbani: unit not given here
[3] = tested on: rabbit serum obtained by immunizing a rabbit with the SARS-CoV strain Frankfurt 1; type: binding; parameters: Binding of a rabbit serum to linear peptides / Binding of a rabbit serum to looped peptides / Rabbit serum linear peptides / Rabbit serum looped peptides / Binding of a rabbit serum to linear peptides of protein N of SARS-CoV Urbani (Rabbit serum linear peptides) / Binding of a rabbit serum to looped/cyclic peptides of protein N of SARS-CoV Urbani (Rabbit serum looped peptides): unit not given here

With LAAVYRINWVTGGIA the “Binding of serum 1a to linear peptides of protein M of SARS-CoV Urbani” value [1] was 0.7, the “Binding of serum 1a to looped/cyclic peptides of protein M of SARS-CoV Urbani” value [1] was 0.8 and the “Binding of serum 1b to linear peptides of protein M of SARS-CoV Urbani” value [1] was 0.5. For the same sequence, the “Binding of serum 1b to looped/cyclic peptides of protein M of SARS-CoV Urbani” value [1] was 0.2, the “Binding of serum 2 to linear peptides of protein M of SARS-CoV Urbani” value [1] was 0.6 and the “Binding of serum 2 to looped/cyclic peptides of protein M of SARS-CoV Urbani” value [1] was 0.5. The “Binding of serum 6 to linear peptides of protein M of SARS-CoV Urbani” value [1] was 0.3, the “Binding of serum 6 to looped/cyclic peptides of protein M of SARS-CoV Urbani” value [1] was 0.7 and the “Binding of serum 37 to linear peptides of protein M of SARS-CoV Urbani” value [1] was 0.8. The “Binding of serum 37 to looped/cyclic peptides of protein M of SARS-CoV Urbani” value [1] was 0.5, the “Binding of serum 62 to linear peptides of protein M of SARS-CoV Urbani” value [1] was 0.9 and the “Binding of serum 62 to looped/cyclic peptides of protein M of SARS-CoV Urbani” value [1] was 0.5. For the same sequence, the “Binding of serum London to linear peptides of protein M of SARS-CoV Urbani” value [1] was 0.3, the “Binding of serum London to looped/cyclic peptides of protein M of SARS-CoV Urbani” value [1] was 0.2 and the “Binding of serum SARS-green to linear peptides of protein M of SARS-CoV Urbani” value [1] was 0.3. For the same sequence, the “Binding of serum SARS-green to looped/cyclic peptides of protein M of SARS-CoV Urbani” value [1] was 0.3, the “Binding of serum SARS-yellow to linear peptides of protein M of SARS-CoV Urbani” value [1] was 0.1 and the “Binding of serum SARS-yellow to looped/cyclic peptides of protein M of SARS-CoV Urbani” value [1] was 0.3. For the same sequence, the “Binding of Control Serum Blood-Bank to Looped peptides of the protein M of SARS-CoV Urbani” value [2] was 0.4, the “Binding of Control serum Blood-bank to linear peptides of the protein M of SARS-CoV Urbani” value [2] was 0.6 and the “Binding of Control serum LUMC to linear peptides of the protein M of SARS-CoV Urbani” value [2] was 0.5. The “Binding of Control serum LUMC to looped peptides of the protein M of SARS-CoV Urbani” value [2] was 0.6, the “Rabbit serum linear peptides” value [3] was 0.4 and the “Rabbit serum looped peptides” value [3] was 0.0.

For LAWIMLLQFAYSNRN, the “Binding of serum 1a to linear peptides of protein M of SARS-CoV Urbani” value [1] was 0.6, the “Binding of serum 1a to looped/cyclic peptides of protein M of SARS-CoV Urbani” value [1] was 0.7 and the “Binding of serum 1b to linear peptides of protein M of SARS-CoV Urbani” value [1] was 0.5. For the same sequence, the “Binding of serum 1b to looped/cyclic peptides of protein M of SARS-CoV Urbani” value [1] was 0.7, the “Binding of serum 2 to linear peptides of protein M of SARS-CoV Urbani” value [1] was 0.4 and the “Binding of serum 2 to looped/cyclic peptides of protein M of SARS-CoV Urbani” value [1] was 0.4. The “Binding of serum 6 to linear peptides of protein M of SARS-CoV Urbani” value [1] was 0.2, the “Binding of serum 6 to looped/cyclic peptides of protein M of SARS-CoV Urbani” value [1] was 0.7 and the “Binding of serum 37 to linear peptides of protein M of SARS-CoV Urbani” value [1] was 0.7. The “Binding of serum 37 to looped/cyclic peptides of protein M of SARS-CoV Urbani” value [1] was 0.6, the “Binding of serum 62 to linear peptides of protein M of SARS-CoV Urbani” value [1] was 0.7 and the “Binding of serum 62 to looped/cyclic peptides of protein M of SARS-CoV Urbani” value [1] was 0.6. For the same sequence, the “Binding of serum London to linear peptides of protein M of SARS-CoV Urbani” value [1] was 0.2, the “Binding of serum London to looped/cyclic peptides of protein M of SARS-CoV Urbani” value [1] was 0.2 and the “Binding of serum SARS-green to linear peptides of protein M of SARS-CoV Urbani” value [1] was 0.3. The “Binding of serum SARS-green to looped/cyclic peptides of protein M of SARS-CoV Urbani” value [1] was 0.4, the “Binding of serum SARS-yellow to linear peptides of protein M of SARS-CoV Urbani” value [1] was 0.0 and the “Binding of serum SARS-yellow to looped/cyclic peptides of protein M of SARS-CoV Urbani” value [1] was 0.3. For the same sequence, the “Binding of Control Serum Blood-Bank to Looped peptides of the protein M of SARS-CoV Urbani” value [2] was 0.6, the “Binding of Control serum Blood-bank to linear peptides of the protein M of SARS-CoV Urbani” value [2] was 0.6 and the “Binding of Control serum LUMC to linear peptides of the protein M of SARS-CoV Urbani” value [2] was 0.2. The “Binding of Control serum LUMC to looped peptides of the protein M of SARS-CoV Urbani” value [2] was 0.6, the “Rabbit serum linear peptides” value [3] was 0.8 and the “Rabbit serum looped peptides” value [3] was 0.1.

For LCALGKVLPFHRWHT, the “Binding of serum 1a to linear peptides of protein X5 of SARS-CoV Urbani” value [1] was 0.7, the “Binding of serum 1a to looped/cyclic peptides of protein X5 of SARS-CoV Urbani” value [1] was 0.4 and the “Binding of serum 1b to linear peptides of protein X5 of SARS-CoV Urbani” value [1] was 0.6. The “Binding of serum 1b to looped/cyclic peptides of protein X5 of SARS-CoV Urbani” value [1] was 0.2, the “Binding of serum 2 to linear peptides of protein X5 of SARS-CoV Urbani” value [1] was 0.7 and the “Binding of serum 2 to looped/cyclic peptides of protein X5 of SARS-CoV Urbani” value [1] was 0.5. For the same sequence, the “Binding of serum 6 to linear peptides of protein X5 of SARS-CoV Urbani” value [1] was 0.5, the “Binding of serum 6 to looped/cyclic peptides of protein X5 of SARS-CoV Urbani” value [1] was 0.4 and the “Binding of serum 37 to linear peptides of protein X5 of SARS-CoV Urbani” value [1] was 0.7. The “Binding of serum 37 to looped/cyclic peptides of protein X5 of SARS-CoV Urbani” value [1] was 0.4, the “Binding of serum 62 to linear peptides of protein X5 of SARS-CoV Urbani” value [1] was 0.8 and the “Binding of serum 62 to looped/cyclic peptides of protein X5 of SARS-CoV Urbani” value [1] was 0.6. The “Binding of serum London to linear peptides of protein X5 of SARS-CoV Urbani” value [1] was 0.9, the “Binding of serum London to looped/cyclic peptides of protein X5 of SARS-CoV Urbani” value [1] was 0.2 and the “Binding of serum SARS-green to linear peptides of protein X5 of SARS-CoV Urbani” value [1] was 0.6. For the same sequence, the “Binding of serum SARS-green to looped/cyclic peptides of protein X5 of SARS-CoV Urbani” value [1] was 0.4, the “Binding of serum SARS-yellow to linear peptides of protein X5 of SARS-CoV Urbani” value [1] was 0.2 and the “Binding of serum SARS-yellow to looped/cyclic peptides of protein X5 of SARS-CoV Urbani” value [1] was 0.4. For the same sequence, the “Binding of Control Serum Blood-Bank to Looped peptides” value [2] was 0.4, the “Binding of Control serum Blood-bank to linear peptides” value [2] was 0.7 and the “Binding of Control serum LUMC to linear peptides” value [2] was 0.5. The “Binding of Control serum LUMC to looped peptides” value [2] was 0.6, the “Rabbit serum linear peptides” value [3] was 0.7 and the “Rabbit serum looped peptides” value [3] was 0.7.

With LFIRQEEVQQELYSP the “Binding of serum 1a to linear peptides of protein X4 of SARS-CoV Urbani” value [1] was 0.8, the “Binding of serum 1a to looped/cyclic peptides of protein X4 of SARS-CoV Urbani” value [1] was 0.7 and the “Binding of serum 1b to linear peptides of protein X4 of SARS-CoV Urbani” value [1] was 0.7. For the same sequence, the “Binding of serum 1b to looped/cyclic peptides of protein X4 of SARS-CoV Urbani” value [1] was 0.5, the “Binding of serum 2 to linear peptides of protein X4 of SARS-CoV Urbani” value [1] was 0.6 and the “Binding of serum 2 to looped/cyclic peptides of protein X4 of SARS-CoV Urbani” value [1] was 0.7. The “Binding of serum 6 to linear peptides of protein X4 of SARS-CoV Urbani” value [1] was 0.5, the “Binding of serum 37 to linear peptides of protein X4 of SARS-CoV Urbani” value [1] was 0.7 and the “Binding of serum 37 to looped/cyclic peptides of protein X4 of SARS-CoV Urbani” value [1] was 0.7. For the same sequence, the “Binding of serum 62 to linear peptides of protein X4 of SARS-CoV Urbani” value [1] was 0.8, the “Binding of serum 62 to looped/cyclic peptides of protein X4 of SARS-CoV Urbani” value [1] was 0.8 and the “Binding of serum London to linear peptides of protein X4 of SARS-CoV Urbani” value [1] was 0.8. The “Binding of serum London to looped/cyclic peptides of protein X4 of SARS-CoV Urbani” value [1] was 0.3, the “Binding of serum SARS-green to linear peptides of protein X4 of SARS-CoV Urbani” value [1] was 0.6 and the “Binding of serum SARS-green to looped/cyclic peptides of protein X4 of SARS-CoV Urbani” value [1] was 0.8. The “Binding of serum SARS-yellow to linear peptides of protein X4 of SARS-CoV Urbani” value [1] was 0.7, the “Binding of serum SARS-yellow to looped/cyclic peptides of protein X4 of SARS-CoV Urbani” value [1] was 0.7 and the “Binding of Control Serum Blood-Bank to Looped peptides” value [2] was 0.8. For the same sequence, the “Binding of Control serum Blood-bank to linear peptides” value [2] was 0.7, the “Binding of Control serum LUMC to linear peptides” value [2] was 0.7 and the “Binding of Control serum LUMC to looped peptides” value [2] was 0.8. The “Rabbit serum linear peptides” value [3] was 0.4 and the “Rabbit serum looped peptides” value [3] was 0.4.
